The values below come from ChEMBL document CHEMBL4251568, “A routinely used protein staining dye acts as an inhibitor of wild type and mutant alpha-synuclein aggregation and modulator of neurotoxicity” (Eur J Med Chem, 2018).

The test system of one series is SH-SY5Y. The series is described as follows: Cytotoxicity against human SH-SY5Y cells assessed as cell viability after 24 hrs by LDH release assay. The class given is cell-based. Background: Release of lactate dehydrogenase indicates damage to the cell membrane.
The nature of series [1]: Cytotoxicity against human SH-SY5Y cells assessed as cell viability after 24 hrs by MTT assay. In kind it is cell-based. Particulars: read-out: Activity.

Turning to `CCOc1ccc(Nc2ccc(C(=C3C=CC(=[N+](CC)Cc4cccc(S(=O)(=O)[O-])c4)C=C3)c3ccc(N(CC)Cc4cccc(S(=O)(=O)[O-])c4)cc3)cc2)cc1.[Na+]`, the Activity entry with SH-SY5Y is listed as “Non-Toxic”. In series [1], the viability at 24 h turned out to be 99%.
Regarding `CCOc1ccc(Nc2ccc(/C(=C3C=C/C(=[N+](/CC)Cc4cccc(S(=O)(=O)[O-])c4)C=C/3C)c3ccc(N(CC)Cc4cccc(S(=O)(=O)[O-])c4)cc3C)cc2)cc1.[Na+]` [BRILLIANT BLUE G], the Activity entry in the series on SH-SY5Y was “Toxic”. Also, the viability at 24 h in series [1] is 19%.
